Experimental data reported in ChEMBL document CHEMBL5038635, “Discovery of Salidroside-Derivated Glycoside Analogues as Novel Angiogenesis Agents to Treat Diabetic Hind Limb Ischemia” (J Med Chem, 2022).
≈ marks a conversion by molar mass, not a printed value. Calls of active or inactive are those of the source. No cut-off for these calls is given here.

Tests used:
[1] = Permeability coefficient across basolateral to apical side in human Caco-2 cells by HPLC-UV analysis
HUVEC [2] = assay: Induction proliferation of human HUVEC cells assessed as increase in number of EdU-positive cells using conditioned medium of mouse C2C12 cells with silenced HIF-1alpha treated at 30 uM under hyperglycemic condition for 12 hrs followed by hypoxia for 24 hrs by EdU-incorporation assay; type: functional, cell-based; details: time 36.0 hrs
Mus musculus [3] = assay: Antidiabetic activity in diabetic HLI C57BL/6 mouse model assessed as increase in blood perfusion recovery at 100 mg/kg administered intramuscularly; type: functional, organism-based
[4] = Octanol/Water partition coefficient, log P of the compound by HPLC-UV analysis
[5] = Protein binding in human plasma by balanced dialysis method; type: ADME, cell-free; details: read-out: PPB (converted)
Mus musculus [6] = assay: Antidiabetic activity in diabetic HLI C57BL/6 mouse model assessed as morphological changes at 100 mg/kg administered intramuscularly; type: functional, organism-based
HUVEC [7] = assay: Angiogenesis activity in human HUVEC cells assessed as suppression of cell migration using conditioned medium of mouse C2C12 cells treated at 30 uM under hyperglycemic condition for 12 hrs followed by hypoxia for 24 hrs by crystal violet dye based transwell assay; type: functional; details: time 36.0 hrs
[8] = Microsomal stability in rat liver microsomes assessed as compound remaining after 30 min by HPLC analysis; type: ADME, Microsome; details: read-out: Stability
MOVAS-1 [9] = assay: Induction proliferation of mouse MOVAS-1 assessed as increase in number of EdU-positive cells using conditioned medium of mouse C2C12 cells with silenced HIF-1alpha treated at 30 uM under hyperglycemic condition for 12 hrs followed by hypoxia for 24 hrs by EdU-incorporation assay; type: functional, cell-based; details: time 36.0 hrs
HUVEC [10] = assay: Angiogenesis activity in human HUVEC cells assessed as increase of cell migration using conditioned medium of mouse C2C12 cells with silenced HIF-1alpha treated at 30 uM under hyperglycemic condition for 12 hrs followed by hypoxia for 24 hrs by crystal violet dye based transwell assay; type: functional; details: time 36.0 hrs
C2C12 [11] = assay: Reversal of hyperglycemia-induced VEGF-A protein level reduction in mouse C2C12 cells measured at 30 uM by ELISA; type: functional, cell-based
[12] = Efflux ratio of Apparent permeability across basolateral to apical side over apical to basolateral side in human Caco-2 cells
C2C12 [13] = assay: Induction of F-actin polymerization in mouse C2C12 cells at 30 uM pretreated with compound for 12 hr followed by hypoxic condition for 24 hrs by phalloidin staining based confocal microscopy; type: functional, cell-based; details: time 36.0 hrs
MOVAS-1 [14] = assay: Angiogenesis activity in mouse MOVAS-1 cells assessed as suppression of cell migration using conditioned medium of mouse C2C12 cells treated at 30 uM under hyperglycemic condition for 12 hrs followed by hypoxia for 24 hrs by crystal violet dye based transwell assay; type: functional; details: time 36.0 hrs
C2C12 [15] = assay: Reversal of hyperglycemia-induced PDGF-BB protein level reduction in mouse C2C12 cells measured at 30 uM by Western blot analysis; type: functional, cell-based
[16] = Metabolic stability in rat leg muscle homogenates assessed as compound remaining after 30 min by HPLC analysis; type: ADME, tissue-based, muscle of leg; details: read-out: Stability
C2C12 [17] = assay: Induction of cell migration in mouse C2C12 cells at 30 uM under hyperglycemic condition incubated for 24 hrs by crystal violet dye based transwell chamber assay; type: functional
HUVEC [18] = assay: Induction proliferation of human HUVEC cells assessed as increase in number of EdU-positive cells using conditioned medium of mouse C2C12 cells treated at 30 uM under hyperglycemic condition for 12 hrs followed by hypoxia for 24 hrs by EdU-incorporation assay; type: functional; details: time 36.0 hrs
Mus musculus [19] = assay: Angiogenesis activity in diabetic HLI C57BL/6 mouse model assessed as HIF-1alpha protein expression at 100 mg/kg, im administered for 21 days followed by surgery by Western blot analysis; type: functional, organism-based; details: time 21.0 day
HUVEC [20] = assay: Angiogenic activity in human HUVEC cells assessed as suppression of F-actin polymerization at 30 uM using conditioned medium of mouse C2C12 cells treated at 30 uM under hyperglycemic condition for 12 hrs followed by hypoxia for 12 hrs by phalloidin staining based confocal microscopy; type: functional, cell-based; details: time 24.0 hrs
MOVAS-1 [21] = assay: Induction proliferation of mouse MOVAS-1 cells assessed as increase in number of EdU-positive cells using conditioned medium of mouse C2C12 cells treated at 30 uM under hyperglycemic condition for 12 hrs followed by hypoxia for 24 hrs by EdU-incorporation assay; type: functional; details: time 36.0 hrs
C2C12 [22] = assay: Reversal of hyperglycemia-induced VEGF-A protein level reduction in mouse C2C12 cells measured at 30 uM by Western blot analysis; type: functional, cell-based
Mus musculus [23] = assay: Angiogenesis activity in diabetic HLI C57BL/6 mouse model assessed as VEGF-A protein expression at 100 mg/kg, im administered for 21 days followed by surgery by Western blot analysis; type: functional, organism-based; details: time 21.0 day
MOVAS-1 [24] = assay: Angiogenesis activity in mouse MOVAS-1 assessed as increase of cell migration using conditioned medium of mouse C2C12 cells with silenced HIF-1alpha treated at 30 uM under hyperglycemic condition for 12 hrs followed by hypoxia for 24 hrs by crystal violet dye based transwell assay; type: functional; details: time 36.0 hrs
[25] = Dissociation constant, pKa of compound by UV-visible spectrometric method; type: physicochemical
Mus musculus [26] = assay: Angiogenesis activity in diabetic HLI C57BL/6 mouse model assessed as PDGF-BB protein expression at 100 mg/kg, im administered for 21 days followed by surgery by Western blot analysis; type: functional, organism-based; details: time 21.0 day
[27] = Water solubility of the compound by HPLC analysis
Mus musculus [28] = assay: Antidiabetic activity in diabetic HLI C57BL/6 mouse model assessed as effect on blood glucose level at 15 mg/kg administered intramuscular; type: functional, organism-based
C2C12 [29] = assay: Reversal of hyperglycemia-induced PDGF-BB protein level reduction in mouse C2C12 cells measured at 30 uM by ELISA; type: functional, cell-based
[30] = Stability in rat plasma assessed as compound remaining at 6.25 to 25 mg/L after 12 hrs by HPLC analysis; type: ADME, cell-free; details: at 6.25 to 25 µg/mL, dose 6.25-25 mg/L, read-out: Stability
MOVAS-1 [31] = assay: Angiogenic activity in mouse MOVAS-1 cells assessed as suppression of F-actin polymerization at 30 uM using conditioned medium of mouse C2C12 cells treated at 30 uM under hyperglycemic condition for 12 hrs followed by hypoxia for 12 hrs by phalloidin staining based confocal microscopy; type: functional, cell-based; details: time 24.0 hrs
[32] = Permeability coefficient across apical to basolateral side in human Caco-2 cells by HPLC-UV analysis

For `OC[C@H]1O[C@@H](OCCc2ccc(O)cc2)[C@H](O)[C@@H](O)[C@@H]1O` [SALIDROSIDE], the Papp B→A [1] was 2.95 ×10⁻⁶ cm/s, the Activity (HUVEC [2]) was “Active” and the Activity (Mus musculus [3]) was “Active”. For the same molecule, the logP [4] was -2.42, the fraction unbound [5] was 0.873 and the Activity (Mus musculus [6]) was “Active”. The Activity (HUVEC [7]) was “inactive”, the remaining at 0.5 h [8] was 43.3% and the Activity (MOVAS-1 [9]) was “Active”. The Activity (HUVEC [10]) was “Active”, the Activity (C2C12 [11]) was “Active” and the efflux ratio [12] was 1.09. The Activity (C2C12 [13]) was “Active”, the Activity (MOVAS-1 [14]) was “inactive” and the Activity (C2C12 [15]) was “Active”. The remaining at 0.5 h [16] was 35.8%, the Activity (C2C12 [17]) was “Active” and the Activity (HUVEC [18]) was “Active”. The Activity (Mus musculus [19]) was “Active”, the Activity (HUVEC [20]) was “inactive” and the Activity (MOVAS-1 [21]) was “Active”. For the same molecule, the Activity (C2C12 [22]) was “Active”, the Activity (Mus musculus [23]) was “Active” and the Activity (MOVAS-1 [24]) was “Active”. The pKa [25] was 10.1, the Activity (Mus musculus [26]) was “Active” and the solubility [27] was 472 mg/mL (≈ 1570 mM). For the same molecule, the Activity (Mus musculus [28]) was “Active”, the Activity (C2C12 [29]) was “Active” and the remaining at 12 h [30] was 99.4%. For the same molecule, the Activity (MOVAS-1 [31]) was “inactive” and the Papp A→B [32] was 2.71 ×10⁻⁶ cm/s.
